The numbers were not newly measured in patent US10449180B2, “Macrolide particulates, methods for preparation, and medical devices associated therewith” (Surmodics, Inc., priority 2013, dated 2019), which cites them from elsewhere.

Each structure is given as a SMILES string.

Turning to `CO[C@H]1C[C@@H]2CC[C@@H](C)[C@@](O)(O2)C(=O)C(=O)N2CCCC[C@H]2C(=O)O[C@H]([C@H](C)C[C@@H]2CC[C@@H](O)[C@H](OC)C2)CC(=O)[C@H](C)/C=C(\C)[C@@H](O)[C@@H](OC)C(=O)[C@H](C)C[C@H](C)/C=C/C=C/C=C/1C` [Rapamycin, rapamycin], the “solubility in N,N-dimethylformamide” value (N,N-dimethylformamide) is given as “soluble”. Besides, the solubility in acetone result (acetone) is on record as “soluble”. In addition, under “ether”, the solubility in ether result is “soluble”. The solubility in water result (water) is “insoluble”.
